Reference: patent US4001325A, “α-Chloroacetanilide selective herbicides” (Diamond Shamrock Corporation, priority 1973, dated 1977)

What was measured:
Morningglory = assay: Example 17 selective herbicidal activity in corn crop, weed kill; assay type: in vivo, Ipomoea sp.; settings: Ipomoea, 3-4 weeks after planting
Description: (§1) This example illustrates the selective herbicidal activity of two of the presently preferred compounds of this invention against various weed species in a corn crop.
(§2) Plots of light sandy soil, cleared of all weeds, are uniformly treated with aqueous dispersions prepared from an emulsifiable concentrate containing 2- 4 pounds of active ingredient per gallon. Diluted aqueous dispersions are applied as surface treatments at 2.0, 1.0, 0.5, and 0.25 pound of active ingredient per acre (lb/A).
(§3) The treated test plots are sown to corn and with seeds of the following weed species:
(§4) Three to four weeks after planting, the degree of damage to both the corn stands and the weed plants is assessed from a rating of 0% (no injury) to 100% (complete destruction).

Soybeans [1] = assay: Example 18 phytotoxic effects on crop stands in different soils; assay type: in vivo, soybean
Experimental: (§5) To further illustrate the herbicidal activity of compounds of this invention in different types of soil as would be encountered in different crop growing localities, a preemergence herbicide test is conducted generally as outlined previously herein. Two light sandy soils are employed containing 0.7% and 1.8% organic matter (O.M.), respectively, along with two loam-type, heavier soils containing either 2.0% or 5-5.5% organic matter (O.M.).
(§6) The test plots are all sprayed uniformly with formulations of the test compounds providing 2.0, 1.0, 0.5, and 0.25 pound of active chemical per acre (lb/A).
(§7) Prior to treatment, the soil plots are sown to field corn, soybean, and grain sorghum crops and seeds of barnyard-grass and yellow foxtail.
Three weeks after planting, the percent control of plant growth is rated from 0% (no injury) to 100% (total destruction). The results obtained are as follows:
Phytotoxic effects on the crop stands are similarly rated with the following results: […]

Soybeans [2] = assay: Field preemergence test, phytotoxic effects on crop; assay type: in vivo, var. Davis
Description: (§8) Test plots of fertilized, light sandy soil containing 0.7% organic matter are sprayed uniformly with aqueous suspensions prepared from emulsifiable concentrates containing 12%, by weight, of the test chemicals diluted to provide dosage rates of the test compounds corresponding to 2.0, 1.0, 0.5, and 0.25 pound per acre (lb/A). The plots are then sown with seeds of the following crop plants: sweet corn, cotton (Coker 413) and soybeans, var. Davis. Seeds of the following weed plants are planted: redroot pigweed, prickly sida, common lambsquarter, goosegrass and giant foxtail.
(§9) Three to four weeks after planting, percent control (plant kill) of the test plants is estimated, from a rating of 0 which denotes no injury to the plant up to 100 which denotes complete destruction. The herbicidal action of the test compounds obtained on the weed species is as follows:
(§10) Phytotoxic effects observed on the crop species is estimated with results as follows: […]

Yellow Foxtail [3] = assay: Example 18 preemergence herbicide test in different soils, % control; assay type: in vivo; settings: three weeks
Experimental: as §5, §6, §7
(§11) Three weeks after planting, the percent control of plant growth is rated from 0% (no injury) to 100% (total destruction).

Corn = assay: Field preemergence test, phytotoxic effects on crop; assay type: in vivo, sweet corn
Description: as §8, §9, §10

Goosegrass [4] = assay: Example 17 selective herbicidal activity in corn crop, weed kill; assay type: in vivo, Eleusine indica; settings: 3-4 weeks after planting
Description: as §1, §2, §3, §4

Yellow Foxtail [5] = assay: as above; assay type: in vivo, Setaria lutescens; settings: Setaria, 3-4 weeks after planting
Description: as §1, §2, §3, §4

Cotton = assay: Field preemergence test, phytotoxic effects on crop; assay type: in vivo, cotton (Coker 413)
Description: as §8, §9, §10

Barnyardgrass [6] = assay: Example 17 selective herbicidal activity in corn crop, weed kill; assay type: in vivo, Echinochloa crusgalli; settings: Echinochloa crus-galli, 3-4 weeks after planting
Description: as §1, §2, §3, §4

Goosegrass [7] = assay: Field preemergence test, weed control; assay type: in vivo; settings: 3-4 weeks after planting
Description: as §8
(§12) Three to four weeks after planting, percent control (plant kill) of the test plants is estimated, from a rating of 0 which denotes no injury to the plant up to 100 which denotes complete destruction. The herbicidal action of the test compounds obtained on the weed species is as follows: […]

Giant Foxtail = assay: Field preemergence test, weed control; assay type: in vivo; settings: 3-4 weeks after planting
Description: as §8, §12

Prickly Sida = assay: Field preemergence test, weed control; assay type: in vivo; settings: 3-4 weeks after planting
Description: as §8, §12

Redroot Pigweed = assay: Field preemergence test, weed control; assay type: in vivo; settings: 3-4 weeks after planting
Description: as §8, §12

Common Lambsquarter = assay: Field preemergence test, weed control; assay type: in vivo; settings: 3-4 weeks after planting
Description: as §8, §12

Barnyardgrass [8] = assay: Example 18 preemergence herbicide test in different soils, % control; assay type: in vivo, barnyard-grass; settings: three weeks
Experimental: as §5, §6, §7, §11

[9] = 0.5 lb/A, Heavy Soil 5-5.5% O.M.
[10] = 0.5 lb/A, Medium Soil 2.0% O.M.
[11] = 1.0 lb/A, Heavy Soil 5-5.5% O.M.
[12] = 1.0 lb/A, Medium Soil 2.0% O.M.
[13] = 2.0 lb/A, Heavy Soil 5-5.5% O.M.
[14] = 2.0 lb/A, Medium Soil 2.0% O.M.

Q: `C#CCN(C(=O)CCl)c1c(CC)cccc1CC` [Example 9, 2-Chloro-2',6'-diethyl-N-propargylacetanilide] was tested. Which mortality at 280.212 g/ha (Morningglory; 0.25 lb/A) did it give?
A: 0%

Q: What about the mortality at 560.425 g/ha (Morningglory; 0.5 lb/A) of the same molecule?
A: 0%

Q: What about the mortality at 1120.85 g/ha (Morningglory; 1.0 lb/A) of the same molecule?
A: 0%

Q: What about the mortality at 2241.7 g/ha (Morningglory; 2.0 lb/A) of the same molecule?
A: 3%

Q: And the “% Phytotoxicity, Soybeans” value (Soybeans [1]; [9])?
A: 0%

Q: And the “% Phytotoxicity, Soybeans” value (Soybeans [1]; [10])?
A: 0%

Q: What about the “% Phytotoxicity, Soybeans” value (Soybeans [1]; 0.5 lb/A, Sand 0.7% O.M.) of the same molecule?
A: 0%

Q: What about the “% Phytotoxicity, Soybeans” value (Soybeans [1]; 0.5 lb/A, Sand 1.8% O.M.) of the same molecule?
A: 0%

Q: What about the “% Phytotoxicity, Soybeans” value (Soybeans [1]; [11]) of the same molecule?
A: 0%

Q: What about the “% Phytotoxicity, Soybeans” value (Soybeans [1]; [12]) of the same molecule?
A: 0%

Q: What about the “% Phytotoxicity, Soybeans” value (Soybeans [1]; 1.0 lb/A, Sand 0.7% O.M.) of the same molecule?
A: 0%

Q: And the “% Phytotoxicity, Soybeans” value (Soybeans [1]; 1.0 lb/A, Sand 1.8% O.M.)?
A: 0%

Q: And the “% Phytotoxicity, Soybeans” value (Soybeans [1]; [13])?
A: 0%

Q: What about the “% Phytotoxicity, Soybeans” value (Soybeans [1]; [14]) of the same molecule?
A: 0%

Q: What about the “% Phytotoxicity, Soybeans” value (Soybeans [1]; 2.0 lb/A, Sand 0.7% O.M.) of the same molecule?
A: 0%

Q: What about the “% Phytotoxicity, Soybeans” value (Soybeans [1]; 2.0 lb/A, Sand 1.8% O.M.) of the same molecule?
A: 0%

Q: What about the “% Crop Kill, Soybeans” value (Soybeans [2]; 1.0 lb/A) of the same molecule?
A: 0%

Q: And the “% Crop Kill, Soybeans” value (Soybeans [2]; 2.0 lb/A)?
A: 0%

Q: What about the “% Control, Yellow Foxtail” value (Yellow Foxtail [3]; [9]) of the same molecule?
A: 90%

Q: What about the “% Control, Yellow Foxtail” value (Yellow Foxtail [3]; [10]) of the same molecule?
A: 90%

Q: What about the “% Control, Yellow Foxtail” value (Yellow Foxtail [3]; 0.5 lb/A, Sand 0.7% O.M.) of the same molecule?
A: 50%

Q: And the “% Control, Yellow Foxtail” value (Yellow Foxtail [3]; 0.5 lb/A, Sand 1.8% O.M.)?
A: 85%

Q: And the “% Control, Yellow Foxtail” value (Yellow Foxtail [3]; [11])?
A: 100%

Q: What about the “% Control, Yellow Foxtail” value (Yellow Foxtail [3]; [12]) of the same molecule?
A: 100%

Q: What about the “% Control, Yellow Foxtail” value (Yellow Foxtail [3]; 1.0 lb/A, Sand 0.7% O.M.) of the same molecule?
A: 70%

Q: And the “% Control, Yellow Foxtail” value (Yellow Foxtail [3]; 1.0 lb/A, Sand 1.8% O.M.)?
A: 80%

Q: And the “% Control, Yellow Foxtail” value (Yellow Foxtail [3]; [13])?
A: 100%

Q: What about the “% Control, Yellow Foxtail” value (Yellow Foxtail [3]; [14]) of the same molecule?
A: 100%

Q: And the “% Control, Yellow Foxtail” value (Yellow Foxtail [3]; 2.0 lb/A, Sand 0.7% O.M.)?
A: 100%

Q: What about the “% Control, Yellow Foxtail” value (Yellow Foxtail [3]; 2.0 lb/A, Sand 1.8% O.M.) of the same molecule?
A: 100%

Q: And the “% Crop Kill, Corn” value (Corn; 1.0 lb/A)?
A: 0%

Q: What about the “% Crop Kill, Corn” value (Corn; 2.0 lb/A) of the same molecule?
A: 3%

Q: And the “% Weed Kill, Goosegrass” value (Goosegrass [4]; 0.25 lb/A)?
A: 87%

Q: And the “% Weed Kill, Goosegrass” value (Goosegrass [4]; 0.5 lb/A)?
A: 100%

Q: What about the “% Weed Kill, Goosegrass” value (Goosegrass [4]; 1.0 lb/A) of the same molecule?
A: 100%

Q: And the “% Weed Kill, Goosegrass” value (Goosegrass [4]; 2.0 lb/A)?
A: 100%

Q: And the mortality at 280.212 g/ha (Yellow Foxtail [5]; 0.25 lb/A)?
A: 80%

Q: And the mortality at 560.425 g/ha (Yellow Foxtail [5]; 0.5 lb/A)?
A: 95%

Q: And the mortality at 1120.85 g/ha (Yellow Foxtail [5]; 1.0 lb/A)?
A: 100%

Q: And the mortality at 2241.7 g/ha (Yellow Foxtail [5]; 2.0 lb/A)?
A: 100%

Q: What about the “% Crop Kill, Cotton” value (Cotton; 1.0 lb/A) of the same molecule?
A: 0%

Q: And the “% Crop Kill, Cotton” value (Cotton; 2.0 lb/A)?
A: 3%

Q: What about the mortality at 280.212 g/ha (Barnyardgrass [6]; 0.25 lb/A) of the same molecule?
A: 68%

Q: And the mortality at 560.425 g/ha (Barnyardgrass [6]; 0.5 lb/A)?
A: 98%

Q: And the mortality at 1120.85 g/ha (Barnyardgrass [6]; 1.0 lb/A)?
A: 98%

Q: What about the mortality at 2241.7 g/ha (Barnyardgrass [6]; 2.0 lb/A) of the same molecule?
A: 100%

Q: And the “% Weed Control, Goosegrass” value (Goosegrass [7]; 0.25 lb/A)?
A: 94%

Q: And the “% Weed Control, Goosegrass” value (Goosegrass [7]; 0.5 lb/A)?
A: 98%

Q: And the “% Weed Control, Goosegrass” value (Goosegrass [7]; 1.0 lb/A)?
A: 100%

Q: And the “% Weed Control, Goosegrass” value (Goosegrass [7]; 2.0 lb/A)?
A: 100%

Q: And the “% Weed Control, Giant Foxtail” value (Giant Foxtail; 0.25 lb/A)?
A: 42%

Q: And the “% Weed Control, Giant Foxtail” value (Giant Foxtail; 0.5 lb/A)?
A: 85%

Q: And the “% Weed Control, Giant Foxtail” value (Giant Foxtail; 1.0 lb/A)?
A: 97%

Q: What about the “% Weed Control, Giant Foxtail” value (Giant Foxtail; 2.0 lb/A) of the same molecule?
A: 100%

Q: What about the “% Weed Control, Prickly Sida” value (Prickly Sida; 0.25 lb/A) of the same molecule?
A: 0%

Q: What about the “% Weed Control, Prickly Sida” value (Prickly Sida; 0.5 lb/A) of the same molecule?
A: 80%

Q: What about the “% Weed Control, Prickly Sida” value (Prickly Sida; 1.0 lb/A) of the same molecule?
A: 42%

Q: And the “% Weed Control, Prickly Sida” value (Prickly Sida; 2.0 lb/A)?
A: 93%

Q: And the “% Weed Control, Redroot Pigweed” value (Redroot Pigweed; 0.25 lb/A)?
A: 75%

Q: What about the “% Weed Control, Redroot Pigweed” value (Redroot Pigweed; 0.5 lb/A) of the same molecule?
A: 93%

Q: What about the “% Weed Control, Redroot Pigweed” value (Redroot Pigweed; 1.0 lb/A) of the same molecule?
A: 100%

Q: What about the “% Weed Control, Redroot Pigweed” value (Redroot Pigweed; 2.0 lb/A) of the same molecule?
A: 100%

Q: And the “% Weed Control, Common Lambsquarter” value (Common Lambsquarter; 0.25 lb/A)?
A: 95%

Q: What about the “% Weed Control, Common Lambsquarter” value (Common Lambsquarter; 0.5 lb/A) of the same molecule?
A: 100%

Q: What about the “% Weed Control, Common Lambsquarter” value (Common Lambsquarter; 1.0 lb/A) of the same molecule?
A: 100%

Q: And the “% Weed Control, Common Lambsquarter” value (Common Lambsquarter; 2.0 lb/A)?
A: 100%

Q: What about the “% Control, Barnyardgrass” value (Barnyardgrass [8]; [9]) of the same molecule?
A: 90%

Q: And the “% Control, Barnyardgrass” value (Barnyardgrass [8]; [10])?
A: 95%

Q: What about the “% Control, Barnyardgrass” value (Barnyardgrass [8]; 0.5 lb/A, Sand 0.7% O.M.) of the same molecule?
A: 60%

Q: What about the “% Control, Barnyardgrass” value (Barnyardgrass [8]; 0.5 lb/A, Sand 1.8% O.M.) of the same molecule?
A: 85%

Q: And the “% Control, Barnyardgrass” value (Barnyardgrass [8]; [11])?
A: 98%

Q: What about the “% Control, Barnyardgrass” value (Barnyardgrass [8]; [12]) of the same molecule?
A: 100%

Q: What about the “% Control, Barnyardgrass” value (Barnyardgrass [8]; 1.0 lb/A, Sand 0.7% O.M.) of the same molecule?
A: 90%

Q: And the “% Control, Barnyardgrass” value (Barnyardgrass [8]; 1.0 lb/A, Sand 1.8% O.M.)?
A: 90%

Q: And the “% Control, Barnyardgrass” value (Barnyardgrass [8]; [13])?
A: 100%

Q: And the “% Control, Barnyardgrass” value (Barnyardgrass [8]; [14])?
A: 100%

Q: And the “% Control, Barnyardgrass” value (Barnyardgrass [8]; 2.0 lb/A, Sand 0.7% O.M.)?
A: 100%

Q: And the “% Control, Barnyardgrass” value (Barnyardgrass [8]; 2.0 lb/A, Sand 1.8% O.M.)?
A: 100%
